Columns and labels:
[1] = tested on: Rheumatoid Arthritis Synovial Fibroblast (RASF); test: In vitro inhibition of rheumatoid arthritis synovial fibroblast (RASF) proliferation; assay type: cell-based
PC3 (Prostate Tumour) = test: In vitro inhibition of tumour cell proliferation, PC3; assay type: cell-based
MCF7 (Breast Tumour) = test: In vitro inhibition of tumour cell proliferation, MCF7; assay type: cell-based
A549 (Lung Tumour) = test: In vitro inhibition of tumour cell proliferation, A549; assay type: cell-based
[2] = tested on: TNFα production in hPBMCs; test: Inhibition of TNFα production from LPS-stimulated hPBMCs; assay type: cell-based, human; settings: hPBMCs stimulated with LPS
Description: (§1) 2) Anti-Inflammatory Activity: Inhibition of the Production of Pro-Inflammatory Cytokines from Stimulated Human Peripheral Blood Mononuclear Cells (hPBMCs)
(§2) Compounds were tested at a concentration of 1 uM for cytokine release inhibition in hPBMCs stimulated with LPS (TNFα), PHA (IFNγ) and anti-CD3 (IL-17A, IL-17F, IL-21, IL-23): […]

[3] = tested on: IFNγ production in hPBMCs; test: Inhibition of IFNγ production from PHA-stimulated hPBMCs; assay type: cell-based, human; settings: hPBMCs stimulated with PHA
Description: as §1, §2

[4] = tested on: IL-17A production in hPBMCs; test: Inhibition of IL-17A production from anti-CD3-stimulated hPBMCs; assay type: cell-based, human; settings: hPBMCs stimulated with anti-CD3
Description: as §1, §2

[5] = tested on: IL-17F production in hPBMCs; test: Inhibition of IL-17F production from anti-CD3-stimulated hPBMCs; assay type: cell-based, human; settings: hPBMCs stimulated with anti-CD3
Description: as §1, §2

[6] = tested on: IL-21 production in hPBMCs; test: Inhibition of IL-21 production from anti-CD3-stimulated hPBMCs; assay type: cell-based, human; settings: hPBMCs stimulated with anti-CD3
Description: as §1, §2

[7] = tested on: IL-23 production in hPBMCs; test: Inhibition of IL-23 production from anti-CD3-stimulated hPBMCs; assay type: cell-based, human; settings: hPBMCs stimulated with anti-CD3
Description: as §1, §2

IC50 (PC3 (Prostate Tumour)) [nM] | IC50 (MCF7 (Breast Tumour)) [nM] | IC50 (A549 (Lung Tumour)) [nM] | Molecule | IC50 [1] [nM] | % Inhibition of Proinflammatory Cytokine Production at 1 uM, TNFα [2] [%] | % Inhibition of Proinflammatory Cytokine Production at 1 uM, IFNγ [3] [%] | % Inhibition of Proinflammatory Cytokine Production at 1 uM, IL-17A [4] [%] | % Inhibition of Proinflammatory Cytokine Production at 1 uM, IL-17F [5] [%] | % Inhibition of Proinflammatory Cytokine Production at 1 uM, IL-21 [6] [%] | % Inhibition of Proinflammatory Cytokine Production at 1 uM, IL-23 [7] [%]
3340 | 352 | 682 | c1cc(-c2nc(N3CCOCC3)c3oc4ncc(CN5CCOCC5)cc4c3n2)c2cc[nH]c2c1 [K, 2-(1H-Indol-4-yl)-4-morpholin-4-yl-8-morpholin-4-ylmethyl-pyrido[3′,2′:4,5]furo[3,2-d]pyrimidine] | 3020 | – | – | – | – | – | –
– | – | – | (E)-1-(4-Methyl-piperazin-1-yl)-3-[4-morpholin-4-yl-2-(1H-pyrrolo[2,3-b]pyridin-4-yl)-pyrido[3′,2′:4,5]furo[3,2-d]pyrimidin-8-yl]-propenone | – | 74 | 67 | 77 | 74 | 82 | 93
